Test results: ChEMBL document CHEMBL3797165, “Synthesis and biological evaluation of novel 1,2,4-triazine derivatives bearing carbazole moiety as potent α-glucosidase inhibitors” (Bioorg Med Chem Lett, 2016)

Assays:
[1] = Inhibition of Saccharomyces cerevisiae alpha-glucosidase using para-nitrophenyl-alpha-D-glucopyranoside as substrate preincubated for 15 mins followed by substrate addition measured after 30 mins by spectrophotometric method
[2] = Non-competitive inhibition of Saccharomyces cerevisiae alpha-glucosidase using para-nitrophenyl-alpha-D-glucopyranoside as substrate preincubated for 15 mins followed by substrate addition measured after 30 mins by Lineweaver-Burk plot analysis

| Structure (SMILES) | IC50 [1] | Ki [2] |
| --- | --- | --- |
| OC(CSc1nnc(-c2cccc(Br)c2)c(-c2cccc(Br)c2)n1)Cn1c2ccccc2c2ccccc21 (stereo not drawn) | 20.1 µM | – |
| OC(CSc1nnc(-c2ccccc2F)c(-c2ccccc2F)n1)Cn1c2ccccc2c2ccccc21 (stereo not drawn) | 21.1 µM | – |
| O=[N+]([O-])c1ccc2c(c1)c1ccccc1n2CC(O)CSc1nnc(-c2ccccc2F)c(-c2ccccc2F)n1 (stereo not drawn) | 22.1 µM | – |
| OC(CSc1nnc(-c2ccccc2)c(-c2ccccc2)n1)Cn1c2ccc(Cl)cc2c2cc(Cl)ccc21 (stereo not drawn) | 27.8 µM | – |
| OC(CSc1nnc(-c2ccccc2Cl)c(-c2ccccc2Cl)n1)Cn1c2ccccc2c2ccccc21 (stereo not drawn) | 47.8 µM | – |
| OC(CSc1nnc(-c2ccccc2)c(-c2ccccc2)n1)Cn1c2ccccc2c2ccccc21 (stereo not drawn) | 31.3 µM | – |
| OC(CSc1nnc(-c2cccc(F)c2)c(-c2cccc(F)c2)n1)Cn1c2ccc(Cl)cc2c2cc(Cl)ccc21 (stereo not drawn) | 33.1 µM | – |
| OC(CSc1nnc(-c2ccccc2)c(-c2ccccc2)n1)Cn1c2ccc(Br)cc2c2cc(Br)ccc21 (stereo not drawn) | 19.3 µM | – |
| O=[N+]([O-])c1ccc2c(c1)c1ccccc1n2CC(O)CSc1nnc(-c2ccccc2)c(-c2ccccc2)n1 (stereo not drawn) | 25 µM | – |
| C[C@@H]1O[C@@H](O[C@@H]2[C@@H](O)[C@H](O)[C@H](O[C@H]3[C@H](O)[C@@H](O)C(O)O[C@@H]3CO)O[C@H]2CO)[C@@H](O)[C@H](O)[C@H]1N[C@H]1C=C(CO)[C@@H](O)[C@H](O)[C@H]1O (stereo partly drawn) | 996 µM | – |

The remaining compounds from weak to strong by IC50 [1], led by results:

| IC50 [1] | Ki [2] | Structure (SMILES) |
| --- | --- | --- |
| 19.2 µM | – | OC(CSc1nnc(-c2cccc(Br)c2)c(-c2cccc(Br)c2)n1)Cn1c2ccc(Cl)cc2c2cc(Cl)ccc21 (stereo not drawn) |
| 17.7 µM | – | OC(CSc1nnc(-c2ccco2)c(-c2ccco2)n1)Cn1c2ccccc2c2ccccc21 (stereo not drawn) |
| 17.6 µM | – | OC(CSc1nnc(-c2ccc(F)cc2)c(-c2ccc(F)cc2)n1)Cn1c2ccccc2c2ccccc21 (stereo not drawn) |
| 12.8 µM | – | OC(CSc1nnc(-c2ccccc2F)c(-c2ccccc2F)n1)Cn1c2ccc(Br)cc2c2cc(Br)ccc21 (stereo not drawn) |
| 9.56 µM | – | OC(CSc1nnc(-c2cccc(Br)c2)c(-c2cccc(Br)c2)n1)Cn1c2ccc(Br)cc2c2cc(Br)ccc21 (stereo not drawn) |
| 9.24 µM | – | OC(CSc1nnc(-c2ccco2)c(-c2ccco2)n1)Cn1c2ccc(Cl)cc2c2cc(Cl)ccc21 (stereo not drawn) |
| 4.27 µM | 4.43 µM | OC(CSc1nnc(-c2ccco2)c(-c2ccco2)n1)Cn1c2ccc(Br)cc2c2cc(Br)ccc21 (stereo not drawn) |
